Measurements as given in article PMC5601486, “Identification of 4-phenylquinolin-2(1H)-one as a specific allosteric inhibitor of Akt” (Scientific Reports, 2017).

Assays:
MAP3K4 = experiment: KINOMEscan; settings: 50000 nM
Protocol: KINOMEscan™ selectivity screen
(§5) The assay was perfor med at DiscoveRx Corporation according the methods published previously5. Briefly, Kinase-tagged T7 phage strains were grown in parallel in an E. coli host derived from the BL21 strain. E. coli were grown to log-phase and infected with T7 phage from a frozen stock and incubated with shaking at 32°C until lysis (90-150 minutes). The kinases were produced in HEK-293 cells and subsequently tagged with DNA for qPCR detection. Streptavidin-coated magnetic beads were treated with biotinylated small molecule ligands to generate affinity resins for kinase
(§6) inhibitor or DMSO control was performed in polypropylene 384-well plates for 1 hr at room temperature. After wash with PBS buffer containing 0.05% Tween 20, the beads were incubated in elution buffer (PBS containing 0.05 % Tween 20 and 0.5 μM non-biotinylated affinity ligand) for 30 minutes at room temperature. The kinase concentration in the eluates was measured by qPCR.

Akt S473 phosphorylation = experiment: Western blot analysis of S473 phosphorylation; format: cell-based; settings: Mus musculus, N2a, 0.5 h; Neuro 2A cells, IGF stimulation 30 min; read-out: IC50 of IGF-induced S473 phosphorylation
Protocol: (§1) Neuro 2A cells were seeded in 12-well plates in DMEM containing 5% FBS for 24 hr.
(§2) After overnight serum starvation (in 0% FBS DMEM), cells were incubated for 30 min at 37 °C with G7 or LY294002 or Torin 1 (Sigma Aldrich) at various concentrations, or DMSO control. IGF-1 was added to each well at a final concentration of 100 ng/mL. After 30-min incubation cells were washed with cold PBS and lysed with 50 µL lysis buffer containing 1% Triton X-100 and protease/phosphatase inhibitors (Cell Signaling Technology) or RIPA buffer (Santa Cruz Biotech). Samples were electrophoresed in 4–12% Bis-Tris gels (Life Technologies) at 150 V using MOPS SDS running buffer. Proteins were transferred electrophoretically to a PVDF or nitrocellulose membrane. For detection of cleaved […]
(§3) caspase 3 a Trans-Blot Turbo Transfer System (Bio-Rad, 25 V for 25 min) with PVDF membrane were used. […]
(§4) anti- GAPDH (14C10) antibody (#2118) (all antibodies were from Cell Signaling Technology unless indicated, 1:1000 dilution was used) at 4°C overnight, washed three times with TBS-T, then incubated with peroxidase-conjugated secondary antibody (Sigma-Aldrich) for 1 hr at room temperature. […] Band intensity was quantitated using Kodak 1D imaging analysis software. […]

NIH/3T3 cells = experiment: MTS cell proliferation/viability assay; format: cell-based; settings: no longer proliferating, in comparison to LY or Torin 1
Protocol: Neuro 2A cells or NIH/3T3 cells (ATCC) were seeded at various confluency in a 96-well plate in 100 µL DMEM containing 5% FBS or 10% FBS with 1% penicillin streptomucin, respectively, at 37 °C in a 5% CO2 and 95% humidity incubator for 18 hr. To each well 1 µL inhibitor with various concentrations or DMSO was added. The final concentrations of the tested inhibitors were 0, 5, 10, 20, 40 and 80 µM for G7 and LY, and 0, 5, 10, 20, 40 and 80 nM for Torin1, based on their respective IC50 values (~µM for G7 and LY and ~ nM for Torin 1). After 24 hr, 20 µL of CellTiter 96® AQueous One Solution Reagent (Promega) were added. The plate was placed in the incubator for 2 h and absorbance at 490 nm was measured with a Synergy HT Microplate Reader (Bio-Tek).

mTORC2 = experiment: Western blot of mTOR S2481 phosphorylation; format: cell-based, Mouse; settings: all concentrations tested including 80 µM
Protocol: as §1, §2, §3, §4

PFCDPK1(P.falciparum) = tested on: T1, PFCDPK1(P.falciparum); experiment: KINOMEscan; format: binding; settings: 50000 nM
T1 construct: purchased DiscoveRx KINOMEscan

EPHB3 = experiment: KINOMEscan; settings: 50000 nM
Protocol: KINOMEscan™ selectivity screen
The assay was perfor med at DiscoveRx Corporation according the methods published previously5. […] The kinases were produced in HEK-293 cells and subsequently tagged with DNA for qPCR detection. Streptavidin-coated magnetic beads were treated with biotinylated small molecule ligands to generate affinity resins for kinase
as §6

TAK1 = experiment: KINOMEscan; settings: 50000 nM
Protocol: KINOMEscan™ selectivity screen
(§7) Briefly, Kinase-tagged T7 phage strains were grown in parallel in an E. coli host derived from the BL21 strain. E. coli were grown to log-phase and infected with T7 phage from a frozen stock and incubated with shaking at 32°C until lysis (90-150 minutes). The kinases were produced in HEK-293 cells and subsequently tagged with DNA for qPCR detection. Streptavidin-coated magnetic beads were treated with biotinylated small molecule ligands to generate affinity resins for kinase
as §6

p38-alpha = experiment: KINOMEscan; settings: 50000 nM
Protocol: KINOMEscan™ selectivity screen
as §7, §6

KIT(D816V) = experiment: KINOMEscan; settings: 50000 nM
Protocol: KINOMEscan™ selectivity screen
as §5, §6

ROCK1 = experiment: KINOMEscan; settings: 50000 nM
Protocol: KINOMEscan™ selectivity screen
as §7, §6

PIK3CA(H1047Y) = experiment: KINOMEscan; settings: 50000 nM
Protocol: KINOMEscan™ selectivity screen
as §5, §6

TRKC = experiment: KINOMEscan; settings: 50000 nM
Protocol: KINOMEscan™ selectivity screen
as §7, §6

STK33 = experiment: KINOMEscan; settings: 50000 nM
Protocol: KINOMEscan™ selectivity screen
as §5, §6

over 380 human kinases = experiment: KINOMEscan selectivity screen (whole panel); settings: 50000 nM; 403 non-mutant kinases
Protocol: KINOMEscan™ selectivity screen
as §5, §6

CSNK2A1 = experiment: KINOMEscan; settings: 50000 nM
Protocol: KINOMEscan™ selectivity screen
as §5, §6

RIPK2 = experiment: KINOMEscan; settings: 50000 nM
Protocol: KINOMEscan™ selectivity screen
as §5, §6

JNK3 = experiment: KINOMEscan; settings: 50000 nM
Protocol: KINOMEscan™ selectivity screen
as §5, §6

RIPK5 = experiment: KINOMEscan; settings: 50000 nM
Protocol: KINOMEscan™ selectivity screen
as §5, §6

IKK-epsilon = experiment: KINOMEscan; settings: 50000 nM
Protocol: KINOMEscan™ selectivity screen
as §7, §6

TGFBR1 = experiment: KINOMEscan; settings: 50000 nM
Protocol: KINOMEscan™ selectivity screen
as §5, §6

VEGFR2 = experiment: KINOMEscan; settings: 50000 nM
Protocol: KINOMEscan™ selectivity screen
as §5, §6

EGFR(G719C) = experiment: KINOMEscan; settings: 50000 nM
Protocol: KINOMEscan™ selectivity screen
as §7, §6

HUNK = experiment: KINOMEscan; settings: 50000 nM
Protocol: KINOMEscan™ selectivity screen
as §7, §6

PRKCI = experiment: KINOMEscan; settings: 50000 nM
Protocol: KINOMEscan™ selectivity screen
as §5, §6

KIT(A829P) = experiment: KINOMEscan; settings: 50000 nM
Protocol: KINOMEscan™ selectivity screen
as §5, §6

LATS2 = experiment: KINOMEscan; settings: 50000 nM
Protocol: KINOMEscan™ selectivity screen
as §7, §6

CAMKK2 = experiment: KINOMEscan; settings: 50000 nM
Protocol: KINOMEscan™ selectivity screen
as §5, §6

[1] = tested on: RSK1(Kin.Dom.1-N-terminal); experiment: KINOMEscan; settings: 50000 nM
Protocol: KINOMEscan™ selectivity screen
as §7, §6

NIM1 = experiment: KINOMEscan; settings: 50000 nM
Protocol: KINOMEscan™ selectivity screen
as §7, §6

Oc1cc(-c2ccccc2)c2ccccc2n1 [G7, 4-phenylquinolin-2(1H)-one]
Percent Control (MAP3K4): 100% | IC50 (Akt S473 phosphorylation): 18 µM | inhibition of confluent NIH/3T3 cells (NIH/3T3 cells): considerably less inhibition | phosphorylation of mTORC2 at S2481 (mTORC2): did not inhibit | Percent Control (PFCDPK1(P.falciparum)): 83% | Percent Control (EPHB3): 96% | Percent Control (TAK1): 61% | Percent Control (p38-alpha): 83% | Percent Control (KIT(D816V)): 58% | Percent Control (ROCK1): 69% | Percent Control (PIK3CA(H1047Y)): 100% | Percent Control (TRKC): 61% | Percent Control (STK33): 100% | Number of Hits S(1) (over 380 human kinases): 0 | Number of Hits S(10) (over 380 human kinases): 2 | Number of Hits S(35) (over 380 human kinases): 14 | Selectivity Score S(10) (over 380 human kinases): 0.005 | Selectivity Score S(35) (over 380 human kinases): 0.035 | Percent Control (CSNK2A1): 78% | Percent Control (RIPK2): 82% | Percent Control (JNK3): 86% | Percent Control (RIPK5): 73% | Percent Control (IKK-epsilon): 100% | Percent Control (TGFBR1): 100% | Percent Control (VEGFR2): 67% | Percent Control (EGFR(G719C)): 79% | Percent Control (HUNK): 70% | Percent Control (PRKCI): 98% | Percent Control (KIT(A829P)): 78% | Percent Control (LATS2): 23% | Percent Control (CAMKK2): 90% | Percent Control [1]: 23% | Percent Control (NIM1): 90%
